Results reported in patent publication US20060120956A1, “Imaging agents comprising barbituric acid derivatives” (priority 2002, published 2006).
Where two headings read alike, the source gives them in different places.

Key:
MMP-9 [1] = target: T1, MMP-9 (Homo sapiens, UniProt P14780); assay: In vitro metalloproteinase inhibition assay, fluorogenic substrate (method of Huang et al.); type: biochemical; conditions: fluorogenic substrate 1 μM, MMP 1 nM, inhibitor 1000 pM-100 μM
From the text: In Vitro Metalloproteinase Inhibition Assay
Target sequence in this assay (P14780 94-707): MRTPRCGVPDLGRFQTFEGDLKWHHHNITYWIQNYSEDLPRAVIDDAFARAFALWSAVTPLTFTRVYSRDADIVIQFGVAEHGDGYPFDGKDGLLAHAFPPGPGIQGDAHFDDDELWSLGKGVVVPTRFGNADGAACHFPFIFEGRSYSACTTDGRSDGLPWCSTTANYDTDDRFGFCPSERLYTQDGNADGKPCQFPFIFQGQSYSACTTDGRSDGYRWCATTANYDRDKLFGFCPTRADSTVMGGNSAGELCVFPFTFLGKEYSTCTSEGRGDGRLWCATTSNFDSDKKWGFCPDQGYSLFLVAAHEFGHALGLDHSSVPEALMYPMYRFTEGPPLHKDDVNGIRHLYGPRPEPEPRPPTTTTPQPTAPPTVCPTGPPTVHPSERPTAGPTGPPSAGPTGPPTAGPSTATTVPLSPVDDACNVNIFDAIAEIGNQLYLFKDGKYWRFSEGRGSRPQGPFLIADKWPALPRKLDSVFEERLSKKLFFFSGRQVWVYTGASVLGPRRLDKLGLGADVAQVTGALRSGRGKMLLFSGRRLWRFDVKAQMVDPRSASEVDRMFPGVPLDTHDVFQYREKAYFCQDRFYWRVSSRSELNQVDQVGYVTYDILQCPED

MMP-2 [2] = target: T2, MMP-2 (Homo sapiens, UniProt P08253); conditions: read-out: MMP-2 IC50; fluorogenic substrate 1 μM, MMP 1 nM, inhibitor 1000 pM-100 μM
T2 sequence (P08253 110-660): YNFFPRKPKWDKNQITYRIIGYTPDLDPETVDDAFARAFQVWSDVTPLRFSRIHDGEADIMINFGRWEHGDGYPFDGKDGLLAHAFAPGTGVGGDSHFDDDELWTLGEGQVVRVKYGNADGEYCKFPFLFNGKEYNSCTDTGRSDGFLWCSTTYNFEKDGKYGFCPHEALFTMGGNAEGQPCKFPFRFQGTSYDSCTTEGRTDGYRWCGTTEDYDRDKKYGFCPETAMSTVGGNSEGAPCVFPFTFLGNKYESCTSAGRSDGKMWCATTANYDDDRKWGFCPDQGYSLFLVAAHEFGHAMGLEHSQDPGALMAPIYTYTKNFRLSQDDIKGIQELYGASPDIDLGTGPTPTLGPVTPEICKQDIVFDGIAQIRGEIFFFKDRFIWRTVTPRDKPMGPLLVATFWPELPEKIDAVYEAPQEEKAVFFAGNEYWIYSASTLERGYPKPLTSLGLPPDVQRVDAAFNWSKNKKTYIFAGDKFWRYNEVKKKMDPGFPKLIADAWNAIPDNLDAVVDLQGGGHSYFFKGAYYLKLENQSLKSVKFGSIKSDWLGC

MMP-2 [3] = target: MMP-2 (Homo sapiens, UniProt P08253); assay: Biomol MMP-2 colourimetric assay kit AK-408 (thiopeptolide substrate); type: biochemical
Description: (§1) Additional In Vitro Metalloproteinase Inhibition Assay
(§2) Compounds were screened using the following commercially available Biomol assay kits:
MMP-2 colourimetric assay kit—Catalogue number AK-408,
(§3) Which are available from Affiniti Research Products Ltd. (Palatine House, Matford Court, Exeter, EX2 8NL, UK).
(§4) (a) Test Compound Preparation.
(§5) Inhibitors were provided in powdered form, and stored at 4° C. For each inhibitor a 1 mM stock solution in DMSO was prepared, dispensed into 20 μl aliquots and these aliquots stored at −20° C. The stock solution was diluted to give 8 inhibitor concentrations (recommended: […], 5 μM, 500 nM, 50 nM, 5 nM, 500 pM, 50 pM and 5 pM). Dilutions were made in the kit assay buffer. A five-fold dilution of the inhibitor stocks is made on addition to the assay wells, therefore final concentration range is from 10 μM to 1 pM.
(§6) (b) Experimental Procedure.
(§7) Details are provided with the commercial kit, but can be summarised as follows:
(§8) Prepare test compound dilutions as above,
(§9) Add assay buffer to plate,
(§10) Add test compounds to plate
(§11) Prepare standard kit inhibitor NNGH (see kit for dilution factor)
(§12) Add NNGH to control inhibitor wells
(§13) Prepare MMP enzyme (see kit for dilution factor)
(§14) Incubate plate at 37° C. for ˜15 min
(§15) Prepare thiopeptolide substrate (see kit for dilution factor)
(§16) Count every 2 min for 1 hr, 37° C., 414 nm on a Labsystems iEMS plate reader.

MMP-9 [4] = target: T1, MMP-9; assay: Biomol MMP-9 colourimetric assay kit AK-410 (thiopeptolide substrate); type: biochemical
Description: as §1, §2
Target sequence in this assay (P14780 107-444 limits assumed): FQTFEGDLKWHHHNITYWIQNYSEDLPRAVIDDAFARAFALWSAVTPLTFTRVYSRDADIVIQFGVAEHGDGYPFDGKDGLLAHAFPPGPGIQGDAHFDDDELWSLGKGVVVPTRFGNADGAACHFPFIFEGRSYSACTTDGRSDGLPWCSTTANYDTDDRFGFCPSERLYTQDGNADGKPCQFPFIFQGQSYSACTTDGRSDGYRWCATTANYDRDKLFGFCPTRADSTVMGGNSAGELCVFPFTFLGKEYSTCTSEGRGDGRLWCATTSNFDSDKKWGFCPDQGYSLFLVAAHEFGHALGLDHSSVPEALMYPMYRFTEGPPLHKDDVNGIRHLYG
MMP-9 colourimetric assay kit—Catalogue number AK-410,
as §3, §4, §5, §6, §7, §8, §9, §10, §11, §12, §13, §14, §15, §16

MMP-12 = MMP-12 (Homo sapiens, UniProt P39900); assay: Biomol MMP-12 colourimetric assay kit AK-402 (thiopeptolide substrate); type: biochemical
MMP-12, sequence (P39900 106-268 limits assumed): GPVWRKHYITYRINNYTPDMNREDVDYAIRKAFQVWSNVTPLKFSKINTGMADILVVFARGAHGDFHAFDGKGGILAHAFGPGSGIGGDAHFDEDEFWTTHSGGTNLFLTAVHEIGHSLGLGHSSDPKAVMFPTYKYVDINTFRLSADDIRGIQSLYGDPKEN
Description: as §1, §2
MMP-12 colourimetric assay kit—Catalogue number AK-402,
as §3, §4, §5, §6, §7, §8, §9, §10, §11, §12, §13, §14, §15, §16

Row | SMILES | IC50 (MMP-9 [1]) [nM] | IC50 (MMP-2 [2]) [nM] | Ki (MMP-2 [3]) [nM] | Ki (MMP-9 [4]) [nM] | also measured
1 | O=C1NC(=O)C(c2ccc(Oc3ccc(Br)cc3)cc2)(N2CCN(c3ccc(F)cc3)CC2)C(=O)N1 [Compound 20, 5-[4-(4-Bromo-phenoxy)phenyl]-5-[4-(4-fluorophenyl)piperazin-1-yl]-pyrimidine-2,4,6-trione] | 19 | 12 |  |  | 
2 | CC(=NO)C(C)(C)NCCC(CCNC(=O)CCN1CCN(C2(c3ccc(Oc4ccc(Br)cc4)cc3)C(=O)NC(=O)NC2=O)CC1)CCNC(C)(C)C(C)=NO (stereo not drawn) [Compound 16, 3-(4-{5-[4-(4-Bromophenoxy)-phenyl]-2,4,6-trioxohexahydropyrmidin-5-yl}-piperazin-1-yl)N-{5-(2-hydroxylimino-1,1-dimethylpropylamino)-3-[2-(2-hydroxylamino-1,1-dimethylpropylamino)-ethyl]-pentyl}-propionamide] |  |  | 14 | 3 | 
3 | O=C1NC(=O)C(c2ccc(Oc3ccc(I)cc3)cc2)(N2CCN(CCO)CC2)C(=O)N1 [Compound 4, 5-[4-(2-Hydroxyethyl)piperazin-1-yl]-5-[4-(4-iodo-phenoxy)phenyl]-pyrimidine-2,4,6-trione] | 2 | 7 |  |  | 
4 | COc1ccc(Oc2ccc(C3(N4CCN(CCO)CC4)C(=O)NC(=O)NC3=O)cc2)cc1 [Compound 3, 5-[4-(2-hydroxyethyl)piperazin-1-yl]-5-[4 (4-methoxy-phenoxy)phenyl]-pyrimidine-2,4,6-trione, reference compound] | 6 | 9 |  |  | 
5 | CC(=NO)C(C)(C)NCCC(CCNC(=O)CCCC(=O)NCCN1CCN(C2(c3ccc(Oc4ccc(Br)cc4)cc3)C(=O)NC(=O)NC2=O)CC1)CCNC(C)(C)C(C)=NO (stereo not drawn) [Compound 17] |  |  | 29 | 10 | Ki (MMP-12; colourimetric kit, thiopeptolide substrate, 37° C., 414 nm, read-out: MMP-12 (Ki)): 157 nM
6 | O=C1NC(=O)C(Nc2ccc(I)cc2)(c2ccc(Oc3ccc(Br)cc3)cc2)C(=O)N1 [Compound 24, 5-[4-(4-Bromophenoxy)-phenyl]-5-(4-iodophenylamino)-pyrimidine-2,4,6-trione] |  |  | 45 | 20 | 
7 | O=C1NC(=O)C(c2ccc(Oc3ccc(Br)cc3)cc2)(N2CCN(CCO)CC2)C(=O)N1 [Compound 2, 5-[4-(4-bromo-phenoxy)phenyl]-5-[4-(2-hydroxyethyl)piperazin-1-yl]-pyrimidine-2,4,6-trione, reference compound] | 4 | 9 |  |  | 
8 | O=C1NC(=O)C(c2ccc(Oc3ccc(Br)cc3)cc2)(N2CCN(CCCF)CC2)C(=O)N1 [Compound 7, 5-[4-(4-Bromophenoxy)phenyl]-5-[4-(3-fluoropropyl)-piperazin-1-yl)-pyrimidine-2,4,6-trione] |  |  | 11 | 2 | 
9 | O=C1NC(=O)C(c2ccc(Oc3ccc(Br)cc3)cc2)(N2CCN(C(=O)CSCCCF)CC2)C(=O)N1 [Compound 9] |  |  | 5 | 0.3 | Ki (MMP-12): 11 nM
10 | C[Si](C)(C)c1ccc(N2CCN(C3(c4ccc(Oc5ccc(Br)cc5)cc4)C(=O)NC(=O)NC3=O)CC2)cc1 |  |  |  |  | melting point: 205 to 210 °C
